From US10300052B2, “Methods for increasing CFTR activity” (THE UAB RESEARCH FOUNDATION, priority 2012, dated 2019)

Molecular target: T1, CFTR (Homo sapiens, UniProt P13569)
T1 construct: from tissue; host or cells: normal human trachea/bronchus from donor explant organs
Test: Short-circuit current (Isc) in primary non-CF human bronchial epithelial (HBE) cells
Type: cell-based
Conditions: ivacaftor 10 μM after pre-stimulation with 100 nM forskolin, compared to forskolin alone (FIG. 1B)
Procedure: In primary non-CF human bronchial epithelial (HBE) cells, ivacaftor also augmented CFTR-dependent anion transport activity following pre-stimulation with 100 nM forskolin, a dose chosen to induce cAMP levels matching CSE-exposed cells, increasing CFTR-dependent short-circuit current (Isc) compared to that stimulated by forskolin alone (FIG. 1B).
Primary human bronchial epithelial (HBE) cells were derived from lung explants after written informed consent was obtained from CF and non-CF subjects with confirmed CFTR genetics by methods described previously. Briefly, tissues were debrided immediately after surgical resection, washed twice in Minimum Essential Media (MEM) with 0.5 mg/ml DTT (Sigma-Aldrich, St. Louis, Mo.) and 25 U/ml DNAse I (Roche, Basel, Switzerland), and then placed in dissociation media containing MEM, 2.5 U/ml DNAse I, 100 μg/ml ceftazidime, 80 μg/ml tobramycin, 1.25 μg/ml amphotericin B, and 4.4 U/ml pronase (Sigma-Aldrich) for 24-36 h at 4° C. […]
Short-circuit current (Isc) was measured under voltage clamp conditions using MC8 voltage clamps and P2300 Ussing chambers (Physiologic Instruments, San Diego, Calif.) as previously described (2). […] A one-second three-mV pulse was imposed every 10 seconds to monitor resistance calculated using Ohm's law. […]

T1 sequence (P13569 whole entry): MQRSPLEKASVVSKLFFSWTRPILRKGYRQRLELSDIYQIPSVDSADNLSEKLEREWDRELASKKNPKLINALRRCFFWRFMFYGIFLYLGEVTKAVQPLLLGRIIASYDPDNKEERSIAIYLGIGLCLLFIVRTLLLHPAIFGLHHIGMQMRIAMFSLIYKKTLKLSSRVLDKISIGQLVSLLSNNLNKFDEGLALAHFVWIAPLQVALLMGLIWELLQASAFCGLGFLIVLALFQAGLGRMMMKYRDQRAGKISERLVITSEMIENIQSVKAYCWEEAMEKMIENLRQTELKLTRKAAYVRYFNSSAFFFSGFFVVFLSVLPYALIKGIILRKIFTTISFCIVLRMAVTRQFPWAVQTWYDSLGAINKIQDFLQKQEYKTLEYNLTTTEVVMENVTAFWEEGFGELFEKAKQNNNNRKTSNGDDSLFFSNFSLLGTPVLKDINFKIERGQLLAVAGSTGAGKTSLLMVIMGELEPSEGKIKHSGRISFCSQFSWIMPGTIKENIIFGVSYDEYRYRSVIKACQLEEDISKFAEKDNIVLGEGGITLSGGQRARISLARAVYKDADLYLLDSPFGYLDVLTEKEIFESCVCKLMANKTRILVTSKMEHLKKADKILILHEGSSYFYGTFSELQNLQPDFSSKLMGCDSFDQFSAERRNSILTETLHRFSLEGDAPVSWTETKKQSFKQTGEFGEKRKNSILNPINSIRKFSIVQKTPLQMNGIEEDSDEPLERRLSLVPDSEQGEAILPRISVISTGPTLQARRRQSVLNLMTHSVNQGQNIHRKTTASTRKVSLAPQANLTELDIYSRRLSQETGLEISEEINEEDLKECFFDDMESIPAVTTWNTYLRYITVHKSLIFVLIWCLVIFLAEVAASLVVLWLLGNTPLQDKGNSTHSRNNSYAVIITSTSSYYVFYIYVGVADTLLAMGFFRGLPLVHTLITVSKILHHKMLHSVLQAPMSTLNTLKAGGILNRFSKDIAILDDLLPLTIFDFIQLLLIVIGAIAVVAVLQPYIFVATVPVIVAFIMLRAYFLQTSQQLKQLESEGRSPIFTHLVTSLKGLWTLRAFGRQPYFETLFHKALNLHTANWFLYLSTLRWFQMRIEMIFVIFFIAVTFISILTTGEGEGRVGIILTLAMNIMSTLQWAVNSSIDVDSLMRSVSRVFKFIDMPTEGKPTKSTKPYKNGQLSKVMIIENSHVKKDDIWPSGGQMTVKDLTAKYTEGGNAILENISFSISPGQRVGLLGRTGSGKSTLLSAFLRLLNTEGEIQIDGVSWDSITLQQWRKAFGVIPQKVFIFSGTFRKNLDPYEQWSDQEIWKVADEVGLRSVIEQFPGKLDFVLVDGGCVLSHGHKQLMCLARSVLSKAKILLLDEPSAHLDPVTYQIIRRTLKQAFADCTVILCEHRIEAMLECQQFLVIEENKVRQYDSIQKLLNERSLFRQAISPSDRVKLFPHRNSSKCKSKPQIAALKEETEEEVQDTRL

How did the “CFTR-dependent anion transport activity (short-circuit current, Isc)” value turn out when `CC(C)(C)c1cc(C(C)(C)C)c(NC(=O)c2c[nH]c3ccccc3c2=O)cc1O` [ivacaftor] was run?
The value was “augmented”.
